Data set [1] is described as follows: Solubility in aqueous assay solutions (observation). The note with it: aqueous assay conditions, peptide concentrations in the millimolar range; in words.
The next data set concerns LmHslV. The data set can be described thus: Degradation of fluorogenic substrates by LmC12-U2-activated LmHslV. The class given is biochemical, Leishmania major. The note with it: LmHslV 75.2 nM, 37 °C, substrate 100 μM, activating peptide LmC12-U2 500 μM; Figure 2; in words. On the procedure: Activity assay: The peptidase activity of recombinant LmHslV was assessed by measuring the fluorescence of AMC released after hydrolysis of the fluorogenic substrates Z-GGL-AMC or JMV4482 (Z-EVNL-AMC), 100 µM. LmHslV activation was obtained by addition of activating peptides (see type and concentration in the figure legends). Activity buffer: 25 mM Tris-HCl pH 8.0, 1 mM DTT, 0.5 mM EDTA and 5 mM MgCl2. Most of the experiments were performed in a final volume of 50 µL in black 96-well microplates (Fisher Scientific, Illkirch, France. Fluorescence was measured using a spectrofluorimeter (BIO-TEK Instrument, Inc., Winooski, VT, USA): filters 360/340 for excitation and 460/440 for emission.
Figure 2 Degradation of different fluorogenic substrates by LmHslV. LmHslV (75.2 nM) was incubated at 37 °C with different fluorogenic substrates (100 μM) in the presence of the activating peptide LmC12-U2 (500 μM). The fluorescence of the free AMC group, proportional to the activity of the sample, was measured at 2 min. intervals. With each substrate, no activity was measured in the absence of activating peptide: for the sake of clarity, only the negative control values obtained with the substrate ZGGL-AMC are shown.

Data set [2] deals with HslV from E. coli (EcHslV) (Escherichia coli, UniProt P0A7B8). The note with it: compared with Z-GGL-AMC; in words.
Description: A further improvement to our assays was the development of a novel fluorogenic peptide substrate, which was more convenient to use than Z-GGL-AMC. Indeed, although the substrate Z-GGL-AMC mostly used in the literature for the studies of HslV has proven useful, its use is limited by its poor solubility in aqueous solutions [6, 36]. In view of finding alternative substrates for LmHslV, we tested a variety of possible fluorogenic substrates (commercial or home-made) including Suc-LLVY-AMC, a classical substrate used for the eukaryotic proteasome, in the presence of the reference activator peptide LmC12-U2.

Square brackets hold non-standard residues; d marks the D form. Peptide text beside a SMILES is read from it. * marks the point of attachment. AMC = Cc1cc(=O)oc2cc(N*)ccc12; Cbz = O=C(OCc1ccccc1)*; AEEA = NCCOCCOCC(=O)O

Chain of HslV from E. coli (EcHslV) (P0A7B8 2-176): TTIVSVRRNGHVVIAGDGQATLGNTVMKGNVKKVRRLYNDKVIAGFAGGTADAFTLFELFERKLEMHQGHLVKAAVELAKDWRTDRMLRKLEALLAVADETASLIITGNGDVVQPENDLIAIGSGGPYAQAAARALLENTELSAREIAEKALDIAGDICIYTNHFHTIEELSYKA

Turning to `CC[C@H](C)[C@H](NC(=O)[C@H](Cc1ccccc1)NC(=O)[C@H](CCCCN)NC(=O)[C@H](CCCCN)NC(=O)[C@@H](NC(=O)[C@H](CC(=O)O)NC(=O)[C@@H](NC(=O)[C@H](CCCCN)NC(=O)[C@H](CCCCN)NC(=O)[C@@H](NC(=O)[C@H](CCSC)NC(=O)COCCOCCNC(=O)[C@H](N)CCCNC(=N)N)C(C)C)C(C)C)[C@@H](C)CC)C(=O)N[C@@H](CC(C)C)C(=O)O` [Compound 8] (H-[dR][AEEA]MVKKVDIKKFIL-OH), in data set [1], the “Solubility of activating peptide” value is recorded as “significantly more soluble than C8-U1”. As for “Cbz-EVNL-{AMC} (SMILES Cc1cc(=O)oc2cc(NC(=O)[C@H](CC(C)C)NC(=O)[C@H](CC(N)=O)NC(=O)[C@@H](NC(=O)[C@H](CCC(=O)O)NC(=O)OCc3ccccc3)C(C)C)ccc12) [Z-EVNL-AMC]”, in the data set with LmHslV, the “Degradation of fluorogenic substrate by activated LmHslV” value was “more efficiently degraded by LmHslV than Z-GGL-AMC and Suc-LLVY-AMC”. Besides, the “Degradation of fluorogenic substrate by EcHslV” value in data set [2] is recorded as “more efficiently degraded by HslV from E. coli (EcHslV) than Z-GGL-AMC”. Regarding H-VNLAKYLL-OH [Compound 3], the “Solubility of activating peptide” value in data set [1] is recorded as “not soluble enough for reliable results”.

Source of the values: article PMC6429459, “The HslV Protease from Leishmania major and Its Activation by C-terminal HslU Peptides” (International Journal of Molecular Sciences, 2019).
